# Literature values in patent US20030199492A1, “Combination therapy” (priority 1997, published 2003).
# Legend:
# [1] = tested on: smooth muscle cell migration
compound,measurement,setting,value
"CCOC(=O)C1=C(COCCN)NC(C)=C(C(=O)OC)C1c1ccccc1Cl (single isomer, unassigned) [R(+) isomer, amlodipine]",calcium channel blocking activity,calcium channel,little or no calcium channel blocking activity
same,inhibition of smooth muscle cell migration,[1],potent inhibitor of smooth muscle cell migration
